ChEMBL document CHEMBL4270505, “Towards antibody-drug conjugates and prodrug strategies with extracellular stimuli-responsive drug delivery in the tumor microenvironment for cancer therapy” (Eur J Med Chem, 2017)

Tests used:
[1] = Antitumor activity against human CL1-5 cells xenografted in mouse assessed as disease cure rate; assay type: functional
HT-29 [2] = assay: Cytotoxicity in human HT-29 cells assessed as reduction in cell viability; assay type: functional, cell-based
HT-29 [3] = assay: Potency index, ratio of IC50 for paclitaxel to IC50 for test compound for cytotoxicity in human HT-29 cells; assay type: functional

SMILES	Activity [1]	IC50 (HT-29 [2]) [nM]	Ratio IC50 (HT-29 [3])
Nc1cccc2nc3c(cc12)Cn1c-3cc2c(c1=O)COC(=O)[C@]2(O)CC(=O)OCc1ccc(O[C@@H]2O[C@H](C(=O)O)[C@@H](O)[C@H](O)[C@H]2O)c([N+](=O)[O-])c1	70 - 85%	–	–
CC(=O)O[C@H]1C(=O)[C@@]2(C)[C@H]([C@H](OC(=O)c3ccccc3)[C@]3(O)C[C@H](OC(=O)[C@H](OC(=O)OCCN(C)C(=O)OCc4ccc(O[C@@H]5O[C@H](C(=O)O)[C@@H](O)[C@H](O)[C@H]5O)cc4)[C@@H](NC(=O)c4ccccc4)c4ccccc4)C(C)=C1C3(C)C)[C@]1(OC(C)=O)CO[C@@H]1C[C@@H]2O	–	26	164
